In ChEMBL document CHEMBL1201862, “PubChem BioAssay data set” (2004):
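Step 1: Grow cells in 96-well plates. Step 2: Expose to compound for 48 hours at 5 concentrations. Step 3: Interpolate endpoints linearly; if unreached, use highest concentration. At the GI50, growth is halved.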 Active and inactive are the calls of the source. No stated cut-off is given here; in the data, active = GI50 up to about 1.1 µM and inactive = higher.

Experiments:
Experiment in all cases: NCI tumour cell line growth inhibition, 48 h
[1] = test system: 786-0
[2] = test system: A498
[3] = test system: A549
[4] = test system: ACHN
[5] = test system: BT-549
[6] = test system: CAKI-1
[7] = test system: COLO 205
[8] = test system: DU-145
[9] = test system: EKVX
[10] = test system: HCC 2998
[11] = test system: HCT-116
[12] = test system: HCT-15
[13] = test system: HOP-62
[14] = test system: HOP-92
[15] = test system: HT-29
[16] = test system: Hs-578T
[17] = test system: IGROV-1
[18] = test system: K562
[19] = test system: KM12
[20] = test system: LOX IMVI
[21] = test system: M14
[22] = test system: MCF7
[23] = test system: MDA-MB-231
[24] = test system: MDA-MB-435
[25] = test system: MDA-N
[26] = test system: Malme-3M
[27] = test system: NCI-H226
[28] = test system: NCI-H23
[29] = test system: NCI-H460
[30] = test system: NCI-H522
[31] = test system: NCI/ADR-RES
[32] = test system: OVCAR-3
[33] = test system: OVCAR-4
[34] = test system: OVCAR-5
[35] = test system: OVCAR-8
[36] = test system: PC-3
[37] = test system: RPMI-8226
[38] = test system: RXF 393
[39] = test system: SF-268
[40] = test system: SF-295
[41] = test system: SK-MEL-28
[42] = test system: SK-MEL-2
[43] = test system: SK-MEL-5
[44] = test system: SK-OV-3
[45] = test system: SN12C
[46] = test system: SNB-19
[47] = test system: SNB-75
[48] = test system: SW-620
[49] = test system: T47D
[50] = test system: TK-10
[51] = test system: U-251
[52] = test system: UACC-257
[53] = test system: UACC-62
[54] = test system: UO-31
[55] = test system: CCRF-CEM
[56] = test system: MOLT-4
[57] = test system: SF-539
[58] = test system: HL-60
[59] = test system: SR

Clc1ccc(CSc2ncnc3c2ncn3C2CCCCO2)cc1 (stereo not drawn)
GI50 [1]: 22.5 µM (inactive)
GI50 [2]: 16.4 µM (inactive)
GI50 [3]: 25.2 µM (inactive)
GI50 [4]: 16.1 µM (inactive)
GI50 [5]: 24.3 µM (inactive)
GI50 [6]: 26.3 µM (inactive)
GI50 [7]: 20 µM (inactive)
GI50 [8]: 31.2 µM (inactive)
GI50 [9]: 13.4 µM (inactive)
GI50 [10]: 18.6 µM (inactive)
GI50 [11]: 20.8 µM (inactive)
GI50 [12]: 26.5 µM
GI50 [13]: 18.7 µM (inactive)
GI50 [14]: 24.7 µM (inactive)
GI50 [15]: 18.8 µM (inactive)
GI50 [16]: 26.5 µM (inactive)
GI50 [17]: 30.3 µM (inactive)
GI50 [18]: 12.6 µM (inactive)
GI50 [19]: 19.1 µM (inactive)
GI50 [20]: 18.5 µM (inactive)
GI50 [21]: 17.1 µM (inactive)
GI50 [22]: 26.6 µM (inactive)
GI50 [23]: 24.5 µM (inactive)
GI50 [24]: 18.2 µM (inactive)
GI50 [25]: 20.1 µM (inactive)
GI50 [26]: 17.9 µM (inactive)
GI50 [27]: 28.4 µM (inactive)
GI50 [28]: 17.4 µM (inactive)
GI50 [29]: 16.9 µM (inactive)
GI50 [30]: 13.8 µM (inactive)
GI50 [31]: 17.9 µM (inactive)
GI50 [32]: 15.7 µM (inactive)
GI50 [33]: 25.2 µM (inactive)
GI50 [34]: 37.4 µM (inactive)
GI50 [35]: 22.9 µM (inactive)
GI50 [36]: 25.6 µM (inactive)
GI50 [37]: 14.3 µM (inactive)
GI50 [38]: 25.1 µM (inactive)
GI50 [39]: 23.3 µM (inactive)
GI50 [40]: 15.7 µM (inactive)
GI50 [41]: 22.8 µM (inactive)
GI50 [42]: 16.4 µM (inactive)
GI50 [43]: 10.9 µM (inactive)
GI50 [44]: 21.4 µM (inactive)
GI50 [45]: 18.3 µM (inactive)
GI50 [46]: 34.8 µM (inactive)
GI50 [47]: 20.2 µM (inactive)
GI50 [48]: 29.9 µM (inactive)
GI50 [49]: 17.4 µM (inactive)
GI50 [50]: 21.8 µM (inactive)
GI50 [51]: 19.6 µM (inactive)
GI50 [52]: 11.2 µM (inactive)
GI50 [53]: 15.7 µM (inactive)
GI50 [54]: 1.88 µM (inactive)

N#CCCN(CCN(CCN(C(=O)Nc1ccccc1)c1ccccc1)C(=O)Nc1ccccc1)C(=O)Nc1ccccc1
GI50 [1]: > 100 µM (inactive)
GI50 [2]: > 100 µM (inactive)
GI50 [3]: > 100 µM (inactive)
GI50 [4]: 40.1 µM (inactive)
GI50 [5]: > 100 µM (inactive)
GI50 [6]: > 100 µM (inactive)
GI50 [55]: 1.89 µM (inactive)
GI50 [7]: > 100 µM (inactive)
GI50 [8]: > 100 µM (inactive)
GI50 [9]: 54.2 µM (inactive)
GI50 [10]: 28.2 µM (inactive)
GI50 [11]: > 100 µM (inactive)
GI50 [12]: > 100 µM
GI50 [13]: > 100 µM (inactive)
GI50 [14]: 15.2 µM (inactive)
GI50 [16]: 26 µM (inactive)
GI50 [17]: 43.9 µM (inactive)
GI50 [19]: 2.57 µM (inactive)
GI50 [20]: > 100 µM (inactive)
GI50 [21]: > 100 µM (inactive)
GI50 [22]: 24.7 µM (inactive)
GI50 [23]: > 100 µM (inactive)
GI50 [24]: 20.7 µM (inactive)
GI50 [25]: > 100 µM (inactive)
GI50 [56]: 4.43 µM (inactive)
GI50 [27]: > 100 µM (inactive)
GI50 [28]: > 100 µM (inactive)
GI50 [31]: > 100 µM (inactive)
GI50 [32]: > 100 µM (inactive)
GI50 [33]: > 100 µM (inactive)
GI50 [34]: > 100 µM (inactive)
GI50 [35]: > 100 µM (inactive)
GI50 [36]: 6.85 µM (inactive)
GI50 [37]: 6.47 µM (inactive)
GI50 [38]: > 100 µM (inactive)
GI50 [39]: > 100 µM (inactive)
GI50 [40]: > 100 µM (inactive)
GI50 [57]: > 100 µM (inactive)
GI50 [41]: > 100 µM (inactive)
GI50 [42]: > 100 µM (inactive)
GI50 [43]: > 100 µM (inactive)
GI50 [44]: > 100 µM (inactive)
GI50 [45]: > 100 µM (inactive)
GI50 [46]: > 100 µM (inactive)
GI50 [47]: 67.6 µM (inactive)
GI50 [48]: > 100 µM (inactive)
GI50 [49]: 48.4 µM (inactive)
GI50 [50]: > 100 µM (inactive)
GI50 [51]: 5.7 µM (inactive)
GI50 [52]: > 100 µM (inactive)
GI50 [53]: > 100 µM (inactive)
GI50 [54]: > 100 µM (inactive)

CCOc1cc(C2SCC(=O)N2c2ccc(Oc3ccc(Cl)cc3)c(Cl)c2)ccc1O (stereo not drawn)
GI50 [1]: 25 µM (inactive)
GI50 [3]: 17.9 µM (inactive)
GI50 [4]: 17.4 µM (inactive)
GI50 [5]: 15.1 µM (inactive)
GI50 [6]: 17.3 µM (inactive)
GI50 [55]: 13.7 µM (inactive)
GI50 [7]: 22.5 µM (inactive)
GI50 [8]: 16.6 µM (inactive)
GI50 [9]: 18 µM (inactive)
GI50 [10]: 17.9 µM (inactive)
GI50 [11]: 12.2 µM (inactive)
GI50 [12]: 19.6 µM
GI50 [58]: 12.6 µM (inactive)
GI50 [13]: 17.6 µM (inactive)
GI50 [14]: 18.6 µM (inactive)
GI50 [15]: 17.1 µM (inactive)
GI50 [16]: 17.3 µM (inactive)
GI50 [17]: 15.9 µM (inactive)
GI50 [18]: 27.1 µM (inactive)
GI50 [19]: 16.9 µM (inactive)
GI50 [20]: 19.4 µM (inactive)
GI50 [21]: 23.5 µM (inactive)
GI50 [22]: 25.1 µM (inactive)
GI50 [23]: 19.3 µM (inactive)
GI50 [24]: 19 µM (inactive)
GI50 [25]: 23.1 µM (inactive)
GI50 [56]: 18.1 µM (inactive)
GI50 [26]: 17.1 µM (inactive)
GI50 [27]: 15.6 µM (inactive)
GI50 [28]: 17 µM (inactive)
GI50 [29]: 19.2 µM (inactive)
GI50 [30]: 13.2 µM (inactive)
GI50 [31]: 17.7 µM (inactive)
GI50 [32]: 14 µM (inactive)
GI50 [33]: 16 µM (inactive)
GI50 [34]: 20.2 µM (inactive)
GI50 [35]: 17.7 µM (inactive)
GI50 [36]: 16.6 µM (inactive)
GI50 [37]: 14.7 µM (inactive)
GI50 [39]: 15.4 µM (inactive)
GI50 [40]: 18.9 µM (inactive)
GI50 [57]: 16.1 µM (inactive)
GI50 [41]: 20 µM (inactive)
GI50 [42]: 14 µM (inactive)
GI50 [43]: 16.1 µM (inactive)
GI50 [44]: 21.6 µM (inactive)
GI50 [45]: 33 µM (inactive)
GI50 [46]: 17.8 µM (inactive)
GI50 [47]: 21.2 µM (inactive)
GI50 [59]: 2.04 µM (inactive)
GI50 [48]: 17 µM (inactive)
GI50 [49]: 14.2 µM (inactive)
GI50 [50]: 17.6 µM (inactive)
GI50 [51]: 18.4 µM (inactive)
GI50 [52]: 17.5 µM (inactive)
GI50 [53]: 16.4 µM (inactive)
GI50 [54]: 10 µM (inactive)
